Data published in US20240002362A1, “DEUTERATED 2-ARYLHETEROCYCLE-3-OXO-2,3- DIHYDROPYRIDAZINE-4-CARBOXAMIDE INHIBITOR AND PREPARATION METHOD THEREFOR AND APPLICATION THEREOF” (Shanghai Zelgen Pharma. Tech Co., Ltd., priority 2020, published 2024).

Key:
Assay type in all cases: in vivo
[1] = Pharmacokinetic test and evaluation in rats; conditions: rat, po; male SD rats, gavage 2 mg/kg, plasma, n = 4, mean
Method: Pharmacokinetic Test and Evaluation in Rats
(§1) After male SD rats weighing about 220 g were fasted overnight, the rats were gavaged with 2 mg/kg of a solution of the compound of the present invention [CMC/TW80 as a carrier]. Blood was collected 0.5, 1.0, 2.0, 4.0, 6.0, 8.0, 12 and 24 h after the administration of the compound of the present invention, respectively, and the concentration of the compound of the present invention in plasma was determined by LC/MS/MS.

[2] = Pharmacokinetic test and evaluation in mice; conditions: mouse, po; male ICR mice, gavage 2 mg/kg, plasma, n = 4, mean
Method: Pharmacokinetic Test and Evaluation in Mice
as §1, with “ICR mice” for “SD rats”, “20-30” for “220”, “mice” for “rats”

[3] = Pharmacokinetic test and evaluation in beagle dogs; conditions: dog, po; male beagle dogs, gavage 2 mg/kg, plasma, n = 4, mean
Method: Pharmacokinetic Test and Evaluation in Beagle Dogs
as §1, with “beagle dogs” for “SD rats”, “6-7 Kg” for “220 g”, “beagle dogs” for “rats”

[4] = tested on: mouse colon cancer cells CT26.WT; assay: Pharmacodynamic test of anti-tumor activity, subcutaneous transplantation cancer model CT26.WT; conditions: CT26.WT subcutaneous in nude mice; for TV (mm^3) (Tumor Volume) Day 0: Day 0 (baseline at grouping), 30 mg/Kg daily gavage; for % TGI (Tumor Growth Inhibition) / TV (mm^3) (Tumor Volume) Day 17: Day 17, 30 mg/Kg daily gavage
Method: Pharmacodynamic Test and Evaluation of Anti-Tumor Activity
1. Subcutaneous Transplantation Cancer Model CT26.WT
5×10^5/100 uL of mouse colon cancer cells CT26.WT were subcutaneously inoculated into the right back of nude mice. The mice were monitored daily for health condition, and the measurement was started when tumors grew to be palpable. The tumor volume was calculated by adopting the following formula: 0.5×L×W^2, wherein L and W represent tumor length and width, respectively. When the tumor grew to about 50 mm^3, the mice were randomly grouped. The mice were gavaged daily with a solution of the compound at a corresponding dose (30 mg/Kg) [CMC/TW80 as a carrier], and at the same time, the general state of the mice was monitored. After the administration was started, the mice were weighed twice in the first week, and the tumor volume was measured twice; from the second week, the mice were weighed three times a week, and the tumor volume was measured three times.

Structure (SMILES) | AUC(0-t) [1] | Cmax [1] | AUC(0-t) [2] | Cmax [2] | AUC(0-t) [3] | Cmax [3] | TV (mm^3) (Tumor Volume) Day 0 [4] | % TGI (Tumor Growth Inhibition) [4] | TV (mm^3) (Tumor Volume) Day 17 [4]
C[C@@H](CO)NC(=O)c1cc(-c2ccc(Cl)cc2)nn(-c2cnn(C)c2)c1=O [BAY-2416964, reference compound] | 624 ng·h/mL | 99.5 ng/mL | 1490 ng·h/mL | 348 ng/mL | 995 ng·h/mL | 211 ng/mL | 55.81 mm^3 | 24.7% | 1670.91 mm^3
[2H]C([2H])([2H])n1cc(-n2nc(-c3ccc(Cl)cc3)cc(C(=O)N[C@@H](C)CO)c2=O)cn1 [Example 2, (S)-6-(4-chlorophenyl)-N-(1-hydroxypropan-2-yl)-2-(1-(methyl-d3)-1H-pyrazole-4-yl)-3-oxo-2,3-dihydropyridazine-4-carboxamide] | 990 ng·h/mL | 146 ng/mL | 850 ng·h/mL | 241 ng/mL | – | – | – | – | –
[2H]C([2H])(O)[C@H](C)NC(=O)c1cc(-c2ccc(Cl)cc2)nn(-c2cnn(C)c2)c1=O [Example 7, (S)-6-(4-chlorophenyl)-N-(1-hydroxypropan-2-yl-1,1-d2)-2-(1-methyl-1H-pyrazole-4-yl)-3-oxo-2,3-dihydropyridazine-4-carboxamide] | 736 ng·h/mL | 96.6 ng/mL | 2460 ng·h/mL | 351 ng/mL | – | – | – | – | –
[2H]C([2H])(O)[C@H](C)NC(=O)c1cc(-c2ccc(Cl)cc2)nn(-c2cnn(C([2H])([2H])[2H])c2)c1=O [Example 8, (S)-6-(4-chlorophenyl)-N-(1-hydroxypropan-2-yl-1,1-d2)-2-(1-(methyl-d3)-1H-pyrazole-4-yl)-3-oxo-2,3-dihydropyridazine-4-carboxamide] | 1390 ng·h/mL | 230 ng/mL | 2620 ng·h/mL | 351 ng/mL | 1880 ng·h/mL | 294 ng/mL | 55.68 mm^3 | 50.5% | 1117.93 mm^3
